In brackets after ≈: the same amount, converted by molar mass.
Tests used:
[1] = tested on: Blumeria graminis f. sp. tritici; assay: Antifungal activity against Blumeria graminis f. sp. tritici after 6.25 g/ha 6 applications of compound in pot by selection pressure test (Control = 0.097 ppm); format: functional, organism-based
[2] = tested on: Blumeria graminis f. sp. tritici; assay: Antifungal activity against Blumeria graminis f. sp. tritici strains in compound treated wheat seedlings measured after 7 days by pot assay; format: functional, organism-based
Podosphaera fusca [3] = assay: Antifungal activity against wild type Sphaerotheca cucurbitae SFS-1; format: functional
Podosphaera fusca [4] = assay: Antifungal activity against kresoxim-methyl-resistant Sphaerotheca cucurbitae SFKMR-1; format: functional
Podosphaera fusca [5] = assay: Antifungal activity against thiophanate-methyl-resistant Sphaerotheca cucurbitae SFTMR-1; format: functional
Podosphaera fusca [6] = assay: Antifungal activity against triflumizole-resistant Sphaerotheca cucurbitae SFTFR-1; format: functional
[7] = tested on: Blumeria graminis f. sp. tritici; assay: Antifungal activity against Blumeria graminis f. sp. tritici after 6.25 g/ha 16 applications of compound by selection pressure test; format: functional, organism-based
[8] = tested on: Blumeria graminis f. sp. tritici; assay: Antifungal activity against Blumeria graminis f. sp. tritici strains by leaf segment floating assay; format: functional, organism-based
Podosphaera fusca [9] = assay: Antifungal activity against Sphaerotheca cucurbitae in compound treated cucumber leaves at 20 degC measured after 5 days by leaf disk assay; format: functional, organism-based

| Compound | EC50 [1] [ppm] | EC50 [2] [ppm] | MIC ([2]; Blumeria graminis, 168 h) [µg/mL] | MIC (Podosphaera fusca [3]) [µg/mL] | MIC (Podosphaera fusca [4]) [µg/mL] | MIC (Podosphaera fusca [5]) [µg/mL] | MIC (Podosphaera fusca [6]) [µg/mL] | EC50 [7] [ppm] | EC50 [8] [ppm] | EC50 (Podosphaera fusca [9]) [ppm] | MIC (Podosphaera fusca [9]; Podosphaera fusca, 120 h) [µg/mL] |
| --- | --- | --- | --- | --- | --- | --- | --- | --- | --- | --- | --- |
| O=C(Cc1ccccc1)N/C(=N\OCC1CC1)c1c(C(F)(F)F)ccc(F)c1F [CYFLUFENAMID] | 0.007 | 0.029 | 0.2 (≈ 0.485 µM) | 0.8 (≈ 1.94 µM) | 0.8 (≈ 1.94 µM) | 0.8 (≈ 1.94 µM) | 0.8 (≈ 1.94 µM) | 0.0008 | 0.0011 | 0.0019 | 0.001 (≈ 0.00243 µM) |
| CO/N=C(/C(=O)OC)c1ccccc1COc1ccccc1C [KRESOXIM-METHYL] |  |  |  | 0.8 (≈ 2.55 µM) | > 100 |  |  |  |  |  |  |
| COC(=O)NC(=S)Nc1ccccc1NC(=S)NC(=O)OC [THIOPHANATE METHYL] |  |  |  | 1 (≈ 2.92 µM) |  | > 100 |  |  |  |  |  |
| CCCOC/C(=N\c1ccc(Cl)cc1C(F)(F)F)n1ccnc1 [TRIFLUMIZOLE] |  |  |  | 0.1 (≈ 0.289 µM) |  |  | 5 (≈ 14.5 µM) |  |  |  |  |
